From patent publication US8952054B2, “Small molecule inhibitors of MUC1 and methods of identifying the same” (Dana-Farber Cancer Institute, Inc., priority 2010, dated 2015) come the findings set out here.

“Also recorded” adds a separate entry of the source.

For one experiment, the system named is MCF-10A cells. The experiment is described as follows: MCF-10A cell number (MTS), caspase-9 cleavage and PI uptake. The class given is cell-based, human. Conditions: 3 d. The procedure: FIGS. 13A-D—Apigenin downregulates MUC1 and confers death of MCF-10A cells. (FIG. 13A) MCF-10A cells were treated with the indicated concentrations of apigenin and baicalein for 3 d, washed and then treated for an additional 3 d. Lysates were immunoblotted with the indicated antibodies. (FIG. 13B) MCF-10A cells were treated with the indicated concentrations apigenin (circles) and baicalein (squares) for 3 d. Viable cell number was determined by the MTS assay. The results (mean+SD of 3 determinations) are expressed as percentage of control growth in the presence of DMSO. (FIG. 13C) MCF-10A cells were treated with DMSO, 75 μM apigenin or 75 μM baicalein for 3 d. Lysates were subjected to immunoblotting with the indicated antibodies. (FIG. 13D) MCF-10A cells were treated with DMSO, 75 μM apigenin or 75 μM baicalein for 3 d, stained with propidium iodide and analyzed by flow cytometry.

For experiment [1], the target named is T1, GFP-MUC1-CD and Flag-MUC1-CD (Homo sapiens, UniProt P15941).
T1 construct: expressed in transfected cells; host or cells: HEK 293 cells (no endogenous MUC1)
T1 sequence (P15941 1184-1255 limits assumed): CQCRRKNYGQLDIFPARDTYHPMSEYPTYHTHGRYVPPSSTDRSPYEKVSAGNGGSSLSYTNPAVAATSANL
Put plainly: Inhibition of dimerization of MUC1-CD in cyto (coprecipitation in transfected 293 cells). The class given is cell-based. Conditions: for formation of MUC1-CD dimers (anti-Flag precipitates, anti-GFP blot): 75 μM for 3 days. How it is done: (§1) FIGS. 1A-D. MUC1/CQC peptide blocks MUC1 oligomerization. (FIG. 1A) Schematic representation of the MUC1-C subunit and the 72-amino acid sequence of MUC1-CD (SEQ ID NO: 1) are shown. The N-terminal 15 amino acids (shaded sequence) MUC1/CQC (SEQ ID NO: 10) and mutated MUC1/AQA (SEQ ID NO: 11) peptides were synthesized with the poly-dArg transduction domain. (FIG. 1B) His-MUC1-CD (1.4 mg/ml) was immobilized on a sensor chip in a BIAcore. MUC1/CQC was injected over the chip at 10 μM. Raw binding data were analyzed by BIAevaluation software version 3.0 and fit to a 1:1 Languir binding model. (FIG. 1C) Purified His-MUC1-CD (1.5 mg/ml) was incubated with PBS, 200 μM MUC1/CQC or 200 μM MUC1/AQA for 1 h at room temperature. The proteins were separated in a non-reducing SDS-polyacrylamide gel and analyzed by immunoblotting with anti-MUC1-C. (FIG. 1D) 293 cells were transiently transfected to express an empty vector or GFP-MUC1-CD and Flag-MUC1-CD. At 48 h after transfection, the cells were treated with 5 μM MUC1/CQC or MUC1/AQA for 3 d. The cells were then harvested for immunoblotting with anti-MUC1-C (left panel). Whole cell lysates were also precipitated with anti-Flag and the precipitates were immunoblotted with the indicated antibodies (right panels).
FIG. 8—293 cells transiently transfected to express an empty vector or GFP-MUC1-CD and Flag-MUC1-CD. At 48 he after transfection, cells were left untreated (control), or treated with 5 μmol/L GO-201 or CP-1 each day for 3 days. The cells were then harvested for immunoblotting with anti-MUC1-C (left). Whole-cell lysates were also precipitated with anti-Flag and the precipitates were immunoblotted with the indicated antibodies (right).
(§2) FIGS. 12A-D—Apigenin is an inhibitor of MUC1-CD dimerization in vitro and in cells. (FIG. 12A) Structures of apigenin and its analogue baicalein. Using the in vitro screening assay, dimerization of MUC1-CD was assessed in the presence of 100 μM apigenin or 100 μM baicalein each dissolved in 0.1% DMSO. The results (mean±SD of 3 determinations) are expressed as percentage of control dimerization in the presence of DMSO alone. (FIG. 12B) MUC1-CD dimerization was assessed in the presence of the indicated concentrations of apigenin in the in vitro screening assay. […] (FIG. 12C) Soluble MUC1-CD was incubated in the presence of 1% DMSO, 1 mM apigenin or 1 mM baicalein for 1 h at room temperature. Monomers and dimmers were assessed by electrophoresis in a non-reducing gel and immunoblotting with anti-MUC1-C. (FIG. 12D) 293 cells were transiently transfected to express an empty vector or GFP-MUC1-CD and Flag-MUC1-CD. At six hours after transfection, the cells were left untreated, and treated with 75 μM apigenin or baicalein for 3 days. Whole-cell lysates were precipitated with anti-Flag, and the precipitates were immunoblotted with the indicated antibodies.
Two different versions of MUC1-CD vectors have been generated for transformation of cells: GFP-MUC1-CD and Flag-MUC1-CD. […] At 48 hr post-transfection, cells are incubated with the selected compounds from the primary and/or secondary screening assays. Cells are then harvested and used for immunoblotting with anti-MUC1-C. Total cell lysates are subjected to immunoprecipitation with anti-GFP antibody and the adsorbates are analyzed by immunoblotting with anti-Flag antibody.
293 cells were transfected with vectors expressing GFP, GFP-MUC1-CD or Flag-MUC1-CD in the presence of Lipofectamine as described (Leng et al., 2007).
The inventors generated two different versions of MUC1-CD vectors for transfecting into cells: GFP-MUC1-CD and Flag-MUC1-CD. […] At 48 hours post-transfection, cells are incubated with selected compounds. The cells were harvested for immunoblotting with anti-MUC1-C. Total cell lysates are subjected to immunoprecipitation with anti-GFP antibody and the adsorbates are analyzed by immunoblotting with anti-Flag antibody. An inhibitor of MUC1-CD dimerization will inhibit dimerization of MUC1-CD in cyto. […]

For the next experiment, the target named is T2, His-MUC1-CD (Homo sapiens, UniProt P15941).
T2 construct: made in house
T2 sequence (P15941 1184-1255): T1 sequence (P15941 1184-1255 limits assumed)
Put plainly: In-gel in vitro MUC1-CD dimerization/oligomerization assay (non-reducing SDS-PAGE, anti-MUC1-C immunoblot). The class given is biochemical. The settings on record: 1 h at room temperature; for formation of MUC1-CD dimers, soluble protein: 1 mM compound. How it is done:
as §1
FIG. 7—GO-201 blocks MUC1 oligomerization. Purified His-MUC1-CD was incubated with PBS (control), GO-201, or CP-1 for 1 hr at room temperature. The proteins were separated in a non-reducing SDS-polyacrylamide gel (SDS-PAGE) and analyzed by immunoblotting with anti-MUC1-C antibodies. The formation of dimers and tetramers was inhibited by incubation with GO-201.
as §2, with “At six hours after transfection, the cells were left untreated, and treated with 75 μM apigenin or baicalein for 3 days. Whole-cell lysates were precipitated with anti-Flag, and the precipitates were immunoblotted with the indicated antibodies.” left out
Purified His-tagged MUC1-CD protein also forms dimers and oligomers when incubated in a buffer in vitro, and these can be detected by electrophoresis in polyacrylamide gels. […] Following extensive washings, the proteins are separated in a non-reducing SDS-polyacrylamide gel and analyzed by immunoblotting with anti-MUC1-CD antibody.
As a positive control for validation of this assay for secondary screening, purified His-MUC1-CD is incubated with either PBS or with GO-201 (CQC peptide) for 1 hr at room temperature. The proteins are separated in a non-reducing SDS-polyacrylamide gel and analyzed by immunoblotting with anti-MUC1-CD antibody.
Purified His-tagged MUC1-CD protein forms dimers and oligomers when incubated in a buffer in vitro, as detected by electrophoresis in polyacrylamide gels. […] Following extensive washings, the proteins are separated in a non-reducing SDS-polyacrylamide gel and analyzed by immunoblotting with anti-MUC1-CD antibody. […]
On the technique in general: In western blotting, separated proteins are transferred to a membrane and probed.

[2] abbreviates: transfected 293 cells, 5 μM peptide for 3 d.

On to `O=c1cc(-c2ccc(O)cc2)oc2cc(O)cc(O)c12` [Apigenin, 4′,5,7-trihydroxyflavone], for which, in the experiment on MCF-10A cells (75 μM), the caspase-9 cleavage result is listed as “caspase-9 cleavage” and the “cell membrane integrity (PI uptake)” value is listed as “loss of cell membrane integrity”. Further, the “cell number (MTS)” value with MCF-10A cells is “decreased MCF-10A cell number”. In addition, in experiment [1] (transfected 293 cells), the “formation of MUC1-CD dimers (anti-Flag precipitates, anti-GFP blot)” value was “completely blocked”. The “formation of MUC1-CD dimers, soluble protein” value at His-MUC1-CD is on record as “completely blocked”.
`O=c1cc(-c2ccccc2)oc2cc(O)c(O)c(O)c12` [Baicalein, 5,6,7-trihydroxyflavone, reference compound]: the caspase-9 cleavage entry in the experiment on MCF-10A cells (75 μM) was “not”. For the same molecule, the “cell number (MTS)” value with MCF-10A cells is “substantially less effective”. Moreover, the “formation of MUC1-CD dimers (anti-Flag precipitates, anti-GFP blot)” value in experiment [1] (transfected 293 cells) is “not”. Also, the “formation of MUC1-CD dimers, soluble protein” value on His-MUC1-CD is recorded as “little effect”.
Take `CC[C@H](C)[C@H](NC(=O)[C@H](CC(=O)O)NC(=O)[C@H](CC(C)C)NC(=O)[C@H](CCC(N)=O)NC(=O)CNC(=O)[C@H](Cc1ccc(O)cc1)NC(=O)[C@H](CC(N)=O)NC(=O)[C@H](CCCCN)NC(=O)[C@H](CCCNC(=N)N)NC(=O)[C@H](CCCNC(=N)N)NC(=O)[C@H](CS)NC(=O)[C@H](CCC(N)=O)NC(=O)[C@H](CS)NC(=O)[C@@H](CCCNC(=N)N)NC(=O)[C@@H](CCCNC(=N)N)NC(=O)[C@@H](CCCNC(=N)N)NC(=O)[C@@H](CCCNC(=N)N)NC(=O)[C@@H](CCCNC(=N)N)NC(=O)[C@@H](CCCNC(=N)N)NC(=O)[C@@H](CCCNC(=N)N)NC(=O)[C@@H](CCCNC(=N)N)NC(=O)[C@H](N)CCCNC(=N)N)C(=O)N[C@@H](Cc1ccccc1)C(=O)N1CCC[C@H]1C(=O)O` [MUC1/CQC]: the “interaction between Flag-MUC1-CD and GFP-MUC1-CD” value in experiment [1] (setting [2]) was “disruption of the interaction”; in experiment [1] (transfected HEK 293 cells, 5 μM GO-201 or CP-1 each day for 3 days), “disruption of the interaction”; in experiment [1] (transfected HEK 293 cells, 5 mM GO-201 as printed) it was “disruption of the interaction”. The His-MUC1-CD oligomer formation result is listed as “substantially decreased oligomer formation” at His-MUC1-CD (200 μM peptide) and “substantially decreases oligomer formation; also recorded: inhibited” at His-MUC1-CD (GO-201 positive control).
As for “MUC1/AQA: control peptide in which the CQC motif was altered to AQA (SEQ ID NO: 11) (AQARRKNYGQLDIFP) [reference compound]”, the “interaction between Flag-MUC1-CD and GFP-MUC1-CD” value in experiment [1] (setting [2]) is on record as “no apparent effect”. Moreover, the His-MUC1-CD oligomer formation result with His-MUC1-CD (200 μM peptide) is on record as “little if any effect”.
